Literature values as cited in PMC9653884, “Bisindolylmaleimides New Ligands of CaM Protein” (Molecules, 2022).

molecular target: CaM; conditions: read-out: Kd of reported CaM inhibitor

Kd [µM] | SMILES
0.71 | NCCc1c[nH]c2ccc(O)cc12 [Serotonin]
7 | NCCCCCCNS(=O)(=O)c1cccc2c(Cl)cccc12 [W7]
5 | CC[C@]1(O)C[C@@H]2CN(CCc3c([nH]c4ccccc34)[C@@](C(=O)OC)(c3cc4c(cc3OC)N(C)[C@@H]3[C@]45CCN4CC=C[C@@](CC)(C[C@@]36OC(=O)N(CCCl)C6=O)[C@H]45)C2)C1 [KAR-2]
14 | CN(C)CCCN1c2ccccc2CCc2ccccc21 [Imipramine]
